This note sets out measurements from the supplement of paper PMC11208160.
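Also: IS621 recombinase and bridge RNA in Escherichia coli cells.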

A short description of the data set: recombinant barcode read abundance after kanamycin selection (control-corrected) (log10(CPM+1)); higher = more efficient recombination; sequences stand for … in AGTGCAGAGAAAATCGGCCAGTTTTCTCTGCCTGCAGTCCGCATGCCGT…AGATTTATGCAGCGGACTGCCTTTCTCCCAAAGTGATAAACCGGACAGTATCATGGACCGGTTTTCCCGGTAATCCGTATTTGCAAGGTTGGTTTCACT; site = the 11-nt target. An outline of the steps:
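Recombination efficiency was calculated from barcode counts at recombinant junctions, normalized to counts per million, averaged and corrected by the control. Each value is given as log10(CPM+1). The constructs were Gibson-cloned oligos (promoter, target, barcode, J23119-driven first 104 bridge RNA bases) in a vector with the remaining 73 bp and a T7-inducible recombinase, co-electroporated into E. coli with a donor plasmid and plated in duplicate on chloramphenicol/ampicillin LB agar (control) or chloramphenicol/ampicillin/kanamycin with 0.1 mM IPTG.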
Consider “CAATGGTCTTGGGTTCTAACCTGTTGCAT (site CAATGGTCTAA)”, for which the “recombinant barcode read abundance (log10)” value is 0.409.

As for “CAATGGTCTTGGGTTCTAACCTGTTGCAT (site CAATGGTCTAC)”, the “recombinant barcode read abundance (log10)” value worked out at 0.476.

Consider “CAATGGTCTTGGGTTCTAACCTGTTGCAT (site CAATGGTCTAG)”, for which the “recombinant barcode read abundance (log10)” value stood at 0.54.

On to “CAATGGTCTTGGGTTCTAACCTGTTGCAT (site CAATGGTCTAT)”, for which the “recombinant barcode read abundance (log10)” value stood at 2.71.

With “CAATTGTCTTGGGTTCTAACCTGTTGCGT (site CAATTGTCTAC)”, the “recombinant barcode read abundance (log10)” value was determined as 3.47.

As to “CAATTGTCTTGGGTTCTAACCTGTTGCGT (site TAATTGTCTAC)”, the “recombinant barcode read abundance (log10)” value worked out at 0.151.

On to “CACAAGTCTTGGGTTCTAACCTGTTGCTT (site CACAAGTCTAA)”, for which the “recombinant barcode read abundance (log10)” value is 0.474.

As to “CACAAGTCTTGGGTTCTAACCTGTTGCTT (site CGCACGTCTAA)”, the “recombinant barcode read abundance (log10)” value came out at 0.0654.

Turning to “CACAATACTTGGGTTCTAACCTGTTGCCT (site CACAATACTAG)”, the “recombinant barcode read abundance (log10)” value was determined as 1.03.

Turning to “CACAATACTTGGGTTCTAACCTGTTGCCT (site GCATGACCTCT)”, the “recombinant barcode read abundance (log10)” value stood at 0.00751.

Take “CACACAGCTTGGGTTCTAACCTGTTGCCT (site CACAAAGCTAG)”: the “recombinant barcode read abundance (log10)” value worked out at 0.082.

For “CACACAGCTTGGGTTCTAACCTGTTGCCT (site CACACAGCTAG)”, the “recombinant barcode read abundance (log10)” value was 0.559.

Consider “CACAGGGCTTGGGTTCTAACCTGTTGCGG (site CACAGGGCTCC)”, for which the “recombinant barcode read abundance (log10)” value was 2.39.

For “CACAGGGCTTGGGTTCTAACCTGTTGCGG (site CACATGGCTCG)”, the “recombinant barcode read abundance (log10)” value amounted to 0.344.

Take “CACATCTCTTGGGTTCTAACCTGTTGCCT (site CACATATCTAT)”: the “recombinant barcode read abundance (log10)” value was 0.0495.

As for “CACATCTCTTGGGTTCTAACCTGTTGCCT (site CACATCTCTAG)”, the “recombinant barcode read abundance (log10)” value is 1.38.

For the sequence “CACATTCCTTGGGTTCTAACCTGTTGCCT (site AACATTCCTAG)”, the “recombinant barcode read abundance (log10)” value came to 0.158.

On to “CACATTCCTTGGGTTCTAACCTGTTGCCT (site CACATTCCTAG)”, for which the “recombinant barcode read abundance (log10)” value stood at 0.17.

Take “CACATTCCTTGGGTTCTAACCTGTTGCCT (site GACATTCCTAG)”: the “recombinant barcode read abundance (log10)” value amounted to 0.141.

“CACATTCCTTGGGTTCTAACCTGTTGCCT (site TACATTCCTAG)”: the “recombinant barcode read abundance (log10)” value came out at 0.06.

In the case of “CACCACTCTTGGGTTCTAACCTGTTGCCT (site AACCACTCTAG)”, the “recombinant barcode read abundance (log10)” value was found to be 0.545.

Consider “CACCACTCTTGGGTTCTAACCTGTTGCCT (site CACCACTCTAG)”, for which the “recombinant barcode read abundance (log10)” value was 1.56.

With “CACCACTCTTGGGTTCTAACCTGTTGCCT (site GACCACTCTAG)”, the “recombinant barcode read abundance (log10)” value was determined as 0.108.

For “CACCACTCTTGGGTTCTAACCTGTTGCCT (site TACCACTCTAG)”, the “recombinant barcode read abundance (log10)” value was determined as 0.195.

For the sequence “CACCGTTCTTGGGTTCTAACCTGTTGCTT (site CACCGTTCTAA)”, the “recombinant barcode read abundance (log10)” value was 0.552.

For “CACCGTTCTTGGGTTCTAACCTGTTGCTT (site CATCGCTCTAA)”, the “recombinant barcode read abundance (log10)” value worked out at 0.0503.

As for “CACGAGACTTGGGTTCTAACCTGTTGCCT (site CACGAGACTAG)”, the “recombinant barcode read abundance (log10)” value came to 2.05.

Regarding “CACGAGACTTGGGTTCTAACCTGTTGCCT (site CACGAGCCTAG)”, the “recombinant barcode read abundance (log10)” value amounted to 0.0856.

In the case of “CACGAGACTTGGGTTCTAACCTGTTGCCT (site CACGAGGCTAG)”, the “recombinant barcode read abundance (log10)” value came to 1.02.

Regarding “CACGAGACTTGGGTTCTAACCTGTTGCCT (site CACGAGTCTAG)”, the “recombinant barcode read abundance (log10)” value amounted to 0.424.

Turning to “CACGAGTCTTGGGTTCTAACCTGTTGCCT (site CACGAGACTAG)”, the “recombinant barcode read abundance (log10)” value worked out at 0.0562.

For “CACGAGTCTTGGGTTCTAACCTGTTGCCT (site CACGAGCCTAG)”, the “recombinant barcode read abundance (log10)” value amounted to 0.24.

Regarding “CACGAGTCTTGGGTTCTAACCTGTTGCCT (site CACGAGGCTAG)”, the “recombinant barcode read abundance (log10)” value was found to be 0.109.

On to “CACGAGTCTTGGGTTCTAACCTGTTGCCT (site CACGAGTCTAG)”, for which the “recombinant barcode read abundance (log10)” value worked out at 1.57.

On to “CACGCCTCTTGGGTTCTAACCTGTTGCCT (site AACGCCTCTAG)”, for which the “recombinant barcode read abundance (log10)” value came out at 0.116.

As to “CACGCCTCTTGGGTTCTAACCTGTTGCCT (site CACGCCTCTAG)”, the “recombinant barcode read abundance (log10)” value was determined as 1.88.

Take “CACGCCTCTTGGGTTCTAACCTGTTGCCT (site GACGCCTCTAG)”: the “recombinant barcode read abundance (log10)” value came to 0.385.

Consider “CACGCCTCTTGGGTTCTAACCTGTTGCCT (site TACGCCTCTAG)”, for which the “recombinant barcode read abundance (log10)” value was found to be 0.0712.

With “CACGCGCCTTGGGTTCTAACCTGTTGCGG (site CACGCGCCTCC)”, the “recombinant barcode read abundance (log10)” value turned out to be 1.84.

With “CACGCGCCTTGGGTTCTAACCTGTTGCGG (site GCTCATACTAG)”, the “recombinant barcode read abundance (log10)” value was determined as 0.00629.

Turning to “CACGGGACTTGGGTTCTAACCTGTTGCAG (site CACGGGACTCT)”, the “recombinant barcode read abundance (log10)” value came to 2.58.

Turning to “CACGGGACTTGGGTTCTAACCTGTTGCAG (site TCGAACGCTAA)”, the “recombinant barcode read abundance (log10)” value was found to be 0.111.

On to “CACGGGGCTTGGGTTCTAACCTGTTGCCT (site ATGCTACCTCC)”, for which the “recombinant barcode read abundance (log10)” value is 0.0666.

Turning to “CACGGGGCTTGGGTTCTAACCTGTTGCCT (site CACGGGGCTAG)”, the “recombinant barcode read abundance (log10)” value was 0.697.

In the case of “CACGGTCCTTGGGTTCTAACCTGTTGCCA (site ATGCTATCTCT)”, the “recombinant barcode read abundance (log10)” value is 0.0164.

Regarding “CACGGTCCTTGGGTTCTAACCTGTTGCCA (site CACGGTCCTTG)”, the “recombinant barcode read abundance (log10)” value was 1.31.

With “CACGGTCCTTGGGTTCTAACCTGTTGCGG (site AACGCTCCTCC)”, the “recombinant barcode read abundance (log10)” value turned out to be 0.0287.

Turning to “CACGGTCCTTGGGTTCTAACCTGTTGCGG (site CACGGTCCTCC)”, the “recombinant barcode read abundance (log10)” value worked out at 3.16.

Take “CACGTTACTTGGGTTCTAACCTGTTGCCT (site CACGGAACTAG)”: the “recombinant barcode read abundance (log10)” value turned out to be 0.0559.

Regarding “CACGTTACTTGGGTTCTAACCTGTTGCCT (site CACGTTACTAG)”, the “recombinant barcode read abundance (log10)” value was 0.628.

As to “CACTAGCCTTGGGTTCTAACCTGTTGCGG (site CACTAGCCTCC)”, the “recombinant barcode read abundance (log10)” value turned out to be 2.41.

Regarding “CACTAGCCTTGGGTTCTAACCTGTTGCGG (site CACTATCCTCC)”, the “recombinant barcode read abundance (log10)” value worked out at 0.133.

Consider “CACTGCTCTTGGGTTCTAACCTGTTGCCT (site CACTGATCTAG)”, for which the “recombinant barcode read abundance (log10)” value stood at 0.2.

Turning to “CACTGCTCTTGGGTTCTAACCTGTTGCCT (site CACTGCTCTAG)”, the “recombinant barcode read abundance (log10)” value was 1.58.

As for “CACTGCTCTTGGGTTCTAACCTGTTGCCT (site CACTGGTCTAG)”, the “recombinant barcode read abundance (log10)” value was 0.151.

With “CACTGCTCTTGGGTTCTAACCTGTTGCCT (site CACTGTTCTAG)”, the “recombinant barcode read abundance (log10)” value was determined as 0.173.

With “CACTGGACTTGGGTTCTAACCTGTTGCCT (site CAATGGACTAG)”, the “recombinant barcode read abundance (log10)” value is 0.155.

With “CACTGGACTTGGGTTCTAACCTGTTGCCT (site CACTGGACTAG)”, the “recombinant barcode read abundance (log10)” value turned out to be 1.04.

With “CACTGGACTTGGGTTCTAACCTGTTGCCT (site CAGTGGACTAG)”, the “recombinant barcode read abundance (log10)” value is 0.42.

“CACTGGACTTGGGTTCTAACCTGTTGCCT (site CATTGGACTAG)”: the “recombinant barcode read abundance (log10)” value amounted to 0.286.

On to “CACTTAACTTGGGTTCTAACCTGTTGCCA (site CACTTAACTTG)”, for which the “recombinant barcode read abundance (log10)” value stood at 0.0764.

On to “CACTTAACTTGGGTTCTAACCTGTTGCCA (site TGACAGTCTCT)”, for which the “recombinant barcode read abundance (log10)” value worked out at 0.0672.

Turning to “CACTTAACTTGGGTTCTAACCTGTTGCCT (site CACTTAACTAG)”, the “recombinant barcode read abundance (log10)” value is 0.8.

Take “CACTTAACTTGGGTTCTAACCTGTTGCCT (site CACTTACCTAG)”: the “recombinant barcode read abundance (log10)” value is 0.

In the case of “CACTTAACTTGGGTTCTAACCTGTTGCCT (site CACTTAGCTAG)”, the “recombinant barcode read abundance (log10)” value came to 0.0439.

“CACTTAACTTGGGTTCTAACCTGTTGCCT (site CACTTATCTAG)”: the “recombinant barcode read abundance (log10)” value was 0.

With “CACTTACCTTGGGTTCTAACCTGTTGCCT (site CACTTAACTAG)”, the “recombinant barcode read abundance (log10)” value was 0.0847.

As for “CACTTACCTTGGGTTCTAACCTGTTGCCT (site CACTTACCTAG)”, the “recombinant barcode read abundance (log10)” value came out at 0.742.

Take “CACTTACCTTGGGTTCTAACCTGTTGCCT (site CACTTAGCTAG)”: the “recombinant barcode read abundance (log10)” value came out at 0.00951.

With “CACTTACCTTGGGTTCTAACCTGTTGCCT (site CACTTATCTAG)”, the “recombinant barcode read abundance (log10)” value was found to be 0.0355.

For the sequence “CACTTAGCTTGGGTTCTAACCTGTTGCCT (site CACTTAACTAG)”, the “recombinant barcode read abundance (log10)” value came to 0.559.

Turning to “CACTTAGCTTGGGTTCTAACCTGTTGCCT (site CACTTACCTAG)”, the “recombinant barcode read abundance (log10)” value stood at 0.181.

In the case of “CACTTAGCTTGGGTTCTAACCTGTTGCCT (site CACTTAGCTAG)”, the “recombinant barcode read abundance (log10)” value is 0.269.

Take “CACTTAGCTTGGGTTCTAACCTGTTGCCT (site CACTTATCTAG)”: the “recombinant barcode read abundance (log10)” value is 0.0252.

As to “CACTTGACTTGGGTTCTAACCTGTTGCCT (site CACTTGACTAG)”, the “recombinant barcode read abundance (log10)” value came to 1.2.

For “CACTTGACTTGGGTTCTAACCTGTTGCCT (site CACTTGCCTAG)”, the “recombinant barcode read abundance (log10)” value was 0.213.

In the case of “CACTTGACTTGGGTTCTAACCTGTTGCCT (site CACTTGGCTAG)”, the “recombinant barcode read abundance (log10)” value was 0.137.
